# Results: ChEMBL document CHEMBL5465560, “Selectivity Literature for EUbOPEN Chemogenomic Library” (2024)
# Legend:
# [1] = target: Phosphatidylinositol 3-kinase catalytic subunit type 3 (Homo sapiens, UniProt Q8NEB9); test: Selectivity interaction (Kinase panel (KiNativ target engagement assay in Jurkat cells)) EUB0001635a PIK3C3; type: cell-based; conditions: Selectivity number of off-targets 0.0, Selectivity number of targets 233.0, Source Knowledge https://www.sciencedirect.com/science/article/pii/S2451945619300674?via%3Dihub, at 1 µM
# [2] = target: T1, Tyrosine-protein kinase ITK/TSK (Homo sapiens) (UniProt Q08881); test: Selectivity interaction (Kinase panel (KiNativ target engagement assay in Jurkat cells)) EUB0001635a ITK; type: cell-based; conditions: at 1 µM
# T1 sequence (whole entry): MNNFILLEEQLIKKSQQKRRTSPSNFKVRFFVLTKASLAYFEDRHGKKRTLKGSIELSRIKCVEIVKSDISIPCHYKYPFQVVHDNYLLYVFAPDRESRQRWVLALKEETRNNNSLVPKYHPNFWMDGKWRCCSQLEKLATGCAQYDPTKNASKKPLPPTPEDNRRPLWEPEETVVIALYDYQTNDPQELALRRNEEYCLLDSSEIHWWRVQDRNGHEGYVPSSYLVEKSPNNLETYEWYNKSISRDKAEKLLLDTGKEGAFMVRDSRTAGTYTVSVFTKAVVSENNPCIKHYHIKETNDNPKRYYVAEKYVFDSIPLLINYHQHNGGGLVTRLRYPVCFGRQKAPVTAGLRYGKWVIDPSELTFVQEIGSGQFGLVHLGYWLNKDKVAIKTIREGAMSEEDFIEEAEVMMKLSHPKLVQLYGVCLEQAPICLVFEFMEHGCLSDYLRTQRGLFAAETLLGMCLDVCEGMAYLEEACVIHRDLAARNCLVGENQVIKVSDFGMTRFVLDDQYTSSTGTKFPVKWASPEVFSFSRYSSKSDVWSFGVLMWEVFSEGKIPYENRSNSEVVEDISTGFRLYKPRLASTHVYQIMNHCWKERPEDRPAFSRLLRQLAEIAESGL
# [3] = target: Serine/threonine-protein kinase MARK1 (Homo sapiens) (UniProt Q9P0L2); test: Selectivity interaction (Kinase panel (KiNativ target engagement assay in Jurkat cells)) EUB0001635a MARK1; type: cell-based; conditions: at 1 µM
# [4] = target: T2, Phosphorylase b kinase gamma catalytic chain, liver/testis isoform (Homo sapiens) (UniProt P15735); test: Selectivity interaction (KinomeScan (DiscoverX)) EUB0000595a PHKG2; conditions: at 10 µM
# T2 sequence (whole entry): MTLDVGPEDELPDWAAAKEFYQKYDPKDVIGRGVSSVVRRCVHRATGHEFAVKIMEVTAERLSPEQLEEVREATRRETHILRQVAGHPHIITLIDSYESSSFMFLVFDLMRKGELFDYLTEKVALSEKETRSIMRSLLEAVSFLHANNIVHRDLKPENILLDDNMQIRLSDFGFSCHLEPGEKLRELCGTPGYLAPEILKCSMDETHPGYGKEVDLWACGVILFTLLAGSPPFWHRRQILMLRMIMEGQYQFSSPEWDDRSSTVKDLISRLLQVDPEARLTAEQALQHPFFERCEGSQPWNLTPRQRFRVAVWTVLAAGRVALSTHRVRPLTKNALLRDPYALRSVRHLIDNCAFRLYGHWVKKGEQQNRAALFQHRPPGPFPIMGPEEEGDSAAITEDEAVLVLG
# Activated CDC42 kinase 1 = Activated CDC42 kinase 1 (Homo sapiens, UniProt Q07912); test: Selectivity interaction (KinomeScan (DiscoverX)) EUB0000695a TNK2; conditions: at 100 nM
# [5] = target: T3, Serine/threonine-protein kinase TAO1 (Homo sapiens) (UniProt Q7L7X3); test: Selectivity interaction (KinomeScan (DiscoverX)) EUB0000666a TAOK1; conditions: at 10 µM
# T3 sequence (whole entry): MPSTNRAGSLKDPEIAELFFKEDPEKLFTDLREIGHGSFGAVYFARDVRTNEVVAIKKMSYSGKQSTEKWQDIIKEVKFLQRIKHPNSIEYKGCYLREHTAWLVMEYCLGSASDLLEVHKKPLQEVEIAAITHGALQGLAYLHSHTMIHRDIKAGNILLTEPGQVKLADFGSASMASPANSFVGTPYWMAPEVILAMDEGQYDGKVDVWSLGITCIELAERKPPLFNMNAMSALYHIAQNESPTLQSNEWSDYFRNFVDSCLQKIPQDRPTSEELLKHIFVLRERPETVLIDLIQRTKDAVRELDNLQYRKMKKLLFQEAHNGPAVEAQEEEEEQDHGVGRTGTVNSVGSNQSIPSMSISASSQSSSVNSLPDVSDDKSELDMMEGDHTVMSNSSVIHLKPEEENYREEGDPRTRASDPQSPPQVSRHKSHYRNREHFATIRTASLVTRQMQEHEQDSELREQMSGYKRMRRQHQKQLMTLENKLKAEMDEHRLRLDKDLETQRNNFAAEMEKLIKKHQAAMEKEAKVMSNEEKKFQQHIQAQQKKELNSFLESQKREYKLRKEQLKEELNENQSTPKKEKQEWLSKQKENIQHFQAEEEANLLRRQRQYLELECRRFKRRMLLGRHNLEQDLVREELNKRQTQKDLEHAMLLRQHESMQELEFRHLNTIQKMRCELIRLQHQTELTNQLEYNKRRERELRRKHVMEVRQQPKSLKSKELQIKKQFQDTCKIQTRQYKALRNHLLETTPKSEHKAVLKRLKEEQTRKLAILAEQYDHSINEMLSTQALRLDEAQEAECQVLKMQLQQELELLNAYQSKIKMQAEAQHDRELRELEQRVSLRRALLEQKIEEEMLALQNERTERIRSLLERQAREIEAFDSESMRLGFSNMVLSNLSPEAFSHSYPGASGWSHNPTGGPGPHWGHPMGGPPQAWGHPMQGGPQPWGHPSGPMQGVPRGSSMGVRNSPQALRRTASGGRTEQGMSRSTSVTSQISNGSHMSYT
# [6] = target: Tyrosine-protein kinase SYK (Homo sapiens, UniProt P43405); conditions: at 10 µM
# [7] = target: Protein kinase C theta type (Homo sapiens, UniProt Q04759); test: Selectivity interaction (Kinase panel (33PanQinase(R) Activity Assay)) EUB0000877a PRKCQ
# [8] = target: 5-hydroxytryptamine receptor 1A (Homo sapiens, UniProt P08908); test: Selectivity interaction (Serotonin 5HT1A Calcium flux assay, agonist and antagonist mode ) EUB0000877a HTR1A
# [9] = target: Phosphatidylinositol 4,5-bisphosphate 3-kinase catalytic subunit alpha isoform (Homo sapiens) (UniProt P42336); test: Selectivity interaction (Kinase panel (literature)) EUB0001199aCl PIK3CA; conditions: at 1 µM
# [10] = target: RAC-alpha serine/threonine-protein kinase (Homo sapiens, UniProt P31749); test: Selectivity interaction (Kinase panel (literature)) EUB0001199aCl AKT1; conditions: at 1 µM
# [11] = target: Casein kinase II subunit alpha (Homo sapiens, UniProt P68400); test: Selectivity interaction (ActivX KiNativ screen (kinase selectivity in THP-1 cell lysates)) EUB0000639a CSNK2A1; type: subcellular; conditions: lysate
# [12] = target: Serine/threonine-protein kinase SIK2 (Homo sapiens) (UniProt Q9H0K1); conditions: at 10 µM
# Serine/threonine-protein kinase SIK2 (Homo sapiens), sequence (Q9H0K1 whole entry, looked up): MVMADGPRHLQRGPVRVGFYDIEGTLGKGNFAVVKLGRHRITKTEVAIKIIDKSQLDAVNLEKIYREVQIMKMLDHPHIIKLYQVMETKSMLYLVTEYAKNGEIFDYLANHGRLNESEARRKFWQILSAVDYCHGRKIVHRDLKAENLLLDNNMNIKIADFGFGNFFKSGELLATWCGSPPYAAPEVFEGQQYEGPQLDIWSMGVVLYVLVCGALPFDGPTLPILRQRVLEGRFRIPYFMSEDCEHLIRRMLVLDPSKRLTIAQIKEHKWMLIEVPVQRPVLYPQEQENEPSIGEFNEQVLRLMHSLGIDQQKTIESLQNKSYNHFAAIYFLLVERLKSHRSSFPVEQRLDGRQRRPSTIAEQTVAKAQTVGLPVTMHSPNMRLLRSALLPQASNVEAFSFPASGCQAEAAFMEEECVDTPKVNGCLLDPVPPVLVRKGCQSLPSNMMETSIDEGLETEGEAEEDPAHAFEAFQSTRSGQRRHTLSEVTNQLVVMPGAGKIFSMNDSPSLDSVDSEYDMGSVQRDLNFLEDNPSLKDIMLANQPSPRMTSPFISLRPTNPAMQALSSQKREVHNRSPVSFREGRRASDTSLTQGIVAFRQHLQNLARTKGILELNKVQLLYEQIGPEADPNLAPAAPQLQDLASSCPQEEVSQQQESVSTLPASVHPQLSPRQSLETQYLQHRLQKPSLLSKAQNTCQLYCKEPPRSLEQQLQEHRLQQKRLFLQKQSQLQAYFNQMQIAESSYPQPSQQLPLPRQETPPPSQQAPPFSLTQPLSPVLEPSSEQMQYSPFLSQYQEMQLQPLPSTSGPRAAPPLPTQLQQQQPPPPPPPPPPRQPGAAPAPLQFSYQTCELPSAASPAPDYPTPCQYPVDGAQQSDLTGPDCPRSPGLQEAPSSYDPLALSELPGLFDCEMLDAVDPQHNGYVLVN
# Casein kinase II subunit alpha, sequence (P68400 whole entry, looked up): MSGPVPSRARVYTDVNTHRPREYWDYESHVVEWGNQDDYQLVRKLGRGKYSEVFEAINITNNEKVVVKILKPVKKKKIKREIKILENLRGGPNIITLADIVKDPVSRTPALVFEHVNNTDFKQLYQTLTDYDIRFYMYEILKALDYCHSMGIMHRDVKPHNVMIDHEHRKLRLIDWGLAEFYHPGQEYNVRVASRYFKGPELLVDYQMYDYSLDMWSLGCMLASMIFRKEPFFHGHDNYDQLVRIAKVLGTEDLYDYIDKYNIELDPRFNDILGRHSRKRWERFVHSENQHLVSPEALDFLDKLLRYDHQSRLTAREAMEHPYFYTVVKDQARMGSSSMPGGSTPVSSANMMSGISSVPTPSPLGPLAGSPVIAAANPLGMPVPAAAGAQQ
# Serine/threonine-protein kinase MARK1 (Homo sapiens), sequence (Q9P0L2 whole entry, looked up, canonical isoform): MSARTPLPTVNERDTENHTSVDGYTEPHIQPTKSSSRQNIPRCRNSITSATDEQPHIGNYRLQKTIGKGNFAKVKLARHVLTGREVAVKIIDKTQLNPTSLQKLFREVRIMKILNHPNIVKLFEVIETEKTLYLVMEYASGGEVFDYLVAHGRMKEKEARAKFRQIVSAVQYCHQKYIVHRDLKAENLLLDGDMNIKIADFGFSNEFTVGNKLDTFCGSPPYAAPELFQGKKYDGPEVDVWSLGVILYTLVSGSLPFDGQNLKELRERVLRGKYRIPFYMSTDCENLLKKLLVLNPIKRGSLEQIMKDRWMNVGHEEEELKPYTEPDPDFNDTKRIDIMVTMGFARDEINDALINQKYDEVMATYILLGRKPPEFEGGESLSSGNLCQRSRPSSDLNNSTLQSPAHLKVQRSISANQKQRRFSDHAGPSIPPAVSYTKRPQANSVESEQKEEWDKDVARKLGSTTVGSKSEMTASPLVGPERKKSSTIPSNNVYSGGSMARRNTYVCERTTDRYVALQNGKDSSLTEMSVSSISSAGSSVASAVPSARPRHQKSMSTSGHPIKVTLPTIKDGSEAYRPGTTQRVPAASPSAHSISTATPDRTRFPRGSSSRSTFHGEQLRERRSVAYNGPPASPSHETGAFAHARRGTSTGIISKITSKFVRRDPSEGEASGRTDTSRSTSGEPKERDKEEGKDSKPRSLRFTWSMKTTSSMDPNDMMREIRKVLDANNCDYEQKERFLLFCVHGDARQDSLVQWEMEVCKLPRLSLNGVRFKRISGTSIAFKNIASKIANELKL
# RAC-alpha serine/threonine-protein kinase, sequence (P31749 whole entry): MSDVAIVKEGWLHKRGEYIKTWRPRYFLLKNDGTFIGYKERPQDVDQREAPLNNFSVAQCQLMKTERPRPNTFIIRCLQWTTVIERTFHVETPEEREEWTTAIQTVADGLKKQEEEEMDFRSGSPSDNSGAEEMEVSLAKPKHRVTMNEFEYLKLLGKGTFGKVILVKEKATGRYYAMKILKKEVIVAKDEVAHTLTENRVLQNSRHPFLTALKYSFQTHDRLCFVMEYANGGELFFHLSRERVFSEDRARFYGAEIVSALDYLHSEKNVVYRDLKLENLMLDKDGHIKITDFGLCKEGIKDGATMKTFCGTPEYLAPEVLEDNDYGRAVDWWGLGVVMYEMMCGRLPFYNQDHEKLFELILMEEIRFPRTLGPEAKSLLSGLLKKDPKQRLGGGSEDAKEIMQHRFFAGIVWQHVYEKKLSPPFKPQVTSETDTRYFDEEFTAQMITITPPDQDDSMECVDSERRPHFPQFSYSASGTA
# Phosphatidylinositol 4,5-bisphosphate 3-kinase catalytic subunit alpha isoform (Homo sapiens), sequence (P42336 whole entry, canonical isoform): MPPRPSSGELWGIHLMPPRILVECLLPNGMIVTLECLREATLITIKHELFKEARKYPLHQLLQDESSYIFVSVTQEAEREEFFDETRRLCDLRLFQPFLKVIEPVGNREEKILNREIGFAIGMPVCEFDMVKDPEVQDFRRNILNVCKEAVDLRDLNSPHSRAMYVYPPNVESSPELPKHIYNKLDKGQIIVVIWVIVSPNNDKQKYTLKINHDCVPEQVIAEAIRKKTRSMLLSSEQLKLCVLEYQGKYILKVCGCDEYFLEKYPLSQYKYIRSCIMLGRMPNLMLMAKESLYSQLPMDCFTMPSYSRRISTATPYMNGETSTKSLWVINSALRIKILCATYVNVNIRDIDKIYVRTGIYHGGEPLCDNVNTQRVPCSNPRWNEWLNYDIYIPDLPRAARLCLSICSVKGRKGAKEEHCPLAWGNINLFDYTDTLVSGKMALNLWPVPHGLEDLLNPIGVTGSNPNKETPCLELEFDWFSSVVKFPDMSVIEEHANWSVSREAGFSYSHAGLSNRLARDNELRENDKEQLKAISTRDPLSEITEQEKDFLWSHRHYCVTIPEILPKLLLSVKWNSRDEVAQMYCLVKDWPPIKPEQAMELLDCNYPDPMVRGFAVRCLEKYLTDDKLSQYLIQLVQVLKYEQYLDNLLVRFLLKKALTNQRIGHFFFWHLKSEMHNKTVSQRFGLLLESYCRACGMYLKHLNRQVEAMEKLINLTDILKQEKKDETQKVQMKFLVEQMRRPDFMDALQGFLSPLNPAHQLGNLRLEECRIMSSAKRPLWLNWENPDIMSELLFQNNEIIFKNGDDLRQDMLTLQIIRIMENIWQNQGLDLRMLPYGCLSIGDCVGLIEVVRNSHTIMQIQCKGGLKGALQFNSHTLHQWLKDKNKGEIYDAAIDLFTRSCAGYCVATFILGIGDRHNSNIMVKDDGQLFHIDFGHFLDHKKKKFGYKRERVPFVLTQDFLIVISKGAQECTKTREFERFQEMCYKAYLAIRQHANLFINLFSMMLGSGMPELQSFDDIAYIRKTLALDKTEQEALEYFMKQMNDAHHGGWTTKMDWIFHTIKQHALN
# Protein kinase C theta type, sequence (Q04759 whole entry): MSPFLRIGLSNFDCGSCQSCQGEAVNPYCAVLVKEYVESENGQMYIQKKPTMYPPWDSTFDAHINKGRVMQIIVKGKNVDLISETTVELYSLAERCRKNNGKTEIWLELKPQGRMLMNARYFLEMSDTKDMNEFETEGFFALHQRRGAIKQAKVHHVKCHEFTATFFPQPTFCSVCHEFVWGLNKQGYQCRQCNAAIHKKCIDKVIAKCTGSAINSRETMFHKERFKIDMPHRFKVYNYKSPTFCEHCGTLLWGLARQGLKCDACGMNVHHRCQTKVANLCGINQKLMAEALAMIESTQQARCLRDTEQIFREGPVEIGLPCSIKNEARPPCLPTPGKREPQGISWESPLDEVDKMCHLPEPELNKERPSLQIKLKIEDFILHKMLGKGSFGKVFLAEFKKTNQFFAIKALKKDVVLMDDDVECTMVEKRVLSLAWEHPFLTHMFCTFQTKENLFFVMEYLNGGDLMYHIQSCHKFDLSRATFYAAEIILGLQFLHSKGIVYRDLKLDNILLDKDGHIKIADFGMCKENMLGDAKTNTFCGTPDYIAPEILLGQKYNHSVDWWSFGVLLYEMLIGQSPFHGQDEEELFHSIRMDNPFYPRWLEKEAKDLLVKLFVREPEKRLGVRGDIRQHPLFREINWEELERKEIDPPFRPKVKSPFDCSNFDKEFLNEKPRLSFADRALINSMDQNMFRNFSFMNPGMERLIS
# 5-hydroxytryptamine receptor 1A, sequence (P08908 whole entry, canonical isoform): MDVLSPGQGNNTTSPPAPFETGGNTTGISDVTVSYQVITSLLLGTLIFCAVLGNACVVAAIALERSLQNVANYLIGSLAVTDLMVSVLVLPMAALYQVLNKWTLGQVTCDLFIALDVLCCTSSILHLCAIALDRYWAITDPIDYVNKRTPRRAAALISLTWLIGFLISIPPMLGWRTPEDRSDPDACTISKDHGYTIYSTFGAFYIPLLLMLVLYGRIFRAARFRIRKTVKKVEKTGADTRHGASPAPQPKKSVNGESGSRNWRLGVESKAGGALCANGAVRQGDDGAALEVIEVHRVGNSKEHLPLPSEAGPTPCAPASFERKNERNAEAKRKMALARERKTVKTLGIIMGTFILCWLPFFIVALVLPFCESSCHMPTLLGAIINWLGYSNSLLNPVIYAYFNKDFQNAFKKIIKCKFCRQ
smiles,measurement,setting,value
C=CC(=O)Nc1ccc(C(=O)Nc2[nH]nc3c2CN(C(=O)N[C@H](CN(C)C)c2ccccc2)C3(C)C)cc1,% of engagement,[1],-19.8%
same,% of engagement,"[2]; Selectivity number of off-targets 0.0, Selectivity number of targets 233.0, Source Knowledge https://www.sciencedirect.com/science/article/pii/S2451945619300674?via%3Dihub",0.3%
same,% of engagement,[2],2.5%
same,% of engagement,[3],8.7%
COCC(=O)NC/C=C/c1ccc2ncnc(Nc3ccc(Oc4ccc(C)nc4)c(C)c3)c2c1 [CP-724714],% of control,[4],86%
Cc1cc(F)c(C(=O)Nc2cccc(-c3nncn3C(C)C)n2)cc1-n1cnc(C2CC2)c1,% of control,Activated CDC42 kinase 1,98%
O=C(NOC[C@H](O)CO)c1ccc(F)c(F)c1Nc1ccc(I)cc1F,% of control,[5],100%
Cc1cc([C@@H](C)Nc2ccccc2C(=O)O)c2nc(N3CCOCC3)cc(=O)n2c1 [AZD-6482],% of control,[6],100%
CCC(=O)N1CC[C@H](Nc2ncnc3c2CN(c2cnc(OC)c(C(F)(F)F)c2)CC3)C1 [LENIOLISIB],IC50,[7],> 10 µM
same,IC50,[8],> 30 µM
CN1Cc2nccc(-c3cn(C)nc3-c3ccc(F)cc3)c2C1=O,% of inhibition,[9],1%
same,% of inhibition,[10],-3%
CC[C@@H]1[C@H](F)C(=O)N[C@@H]1COc1nccc2cc(C(N)=O)c(OC)cc12 [ZIMLOVISERTIB],% of inhibition,[11]; at 1 µM,25.8%
same,% of inhibition,[11]; at 5 µM,-6.9%
CCN(CC)CCCCNc1ncc2cc(-c3cc(OC)cc(OC)c3)c(NC(=O)NC(C)(C)C)nc2n1,% of control,[12],100%
